# Results reported in patent US20220177520A1, “PEPTIDES INHIBITING ANDROGEN RECEPTOR ACTIVITY, AND COSMETICS COMPOSITION USING SAME” (SUPADELIXIR INC., priority 2019, published 2022).
# Assays:
# [1] = tested on: androgen receptor; experiment: PSA expression in DHT-treated prostate cancer cells (Western blot); type: cell-based; settings: LNCaP cells, DHT 20 nM plus AR Pep1 1, 10, 100 μM, 24 hours, versus DHT only; FIG. 1
# Experimental: 1. Prostate cancer cells (LNCaP) were prepared at a density of 5×10^6 cells per well, treated with DHT at a concentration of 20 nM and with AR Pep1 at a concentration of 1, 10, 100 μM respectively, then cultured in an incubator at 37° C. in the presence of 5% CO2 for 24 hours. As a control group, one with no treatment at all and one treated only with DHT were used. The cancer cells were washed with PBS three times, and lysed with 1% NP40 lysis buffer (1% Nonidet P40, 0.1 M NaCl, 0.05 M tris (pH 8.0), 5 mM EDTA) containing […] PMSP (phenylmethylsulfonyl fluoride), 1 μg/ml pepstatin A, 10 μg/ml leupeptin, 1 μg/ml aprotinin and 1 mM Na3VO4.
# 2. The cell lysate was quantified using Bradford assay to prepare a protein sample for electrophoresis.
# Immunoprecipitates were subjected to 12.5% polyacrylamide gel electrophoresis, then the unfolded protein was transferred onto a nitrocellulose membrane, treated with a blocking solution (Tris-buffered saline (TBS) containing 0.05% Tween 20 and 3% bovine serum albumin) for about one hour at room temperature. Then, the membrane was suspended in TBS buffer containing Anti-PSA polyclonal antibody (Santa cruz, CA, USA) for two hours and washed with TBS buffer containing 0.05% Tween 20. […]
# [2] = target: T1, AR and POL II (Homo sapiens, UniProt P10275); experiment: Physical binding of AR and POL II in DHT-treated human keratinocytes (in situ PLA); type: cell-based; settings: HaCaT cells, DHT 20 nM plus AR Pep1 20 nM, 1, 10, 100 μM, 24 hours, versus DHT only; FIG. 2
# T1 construct: Human keratinocytes (HaCaT) were prepared at a density of 4.5×10^4 cells per well, treated with DHT; endogenous in cells; host or cells: HaCaT human keratinocytes
# T1 sequence (P10275 1-920): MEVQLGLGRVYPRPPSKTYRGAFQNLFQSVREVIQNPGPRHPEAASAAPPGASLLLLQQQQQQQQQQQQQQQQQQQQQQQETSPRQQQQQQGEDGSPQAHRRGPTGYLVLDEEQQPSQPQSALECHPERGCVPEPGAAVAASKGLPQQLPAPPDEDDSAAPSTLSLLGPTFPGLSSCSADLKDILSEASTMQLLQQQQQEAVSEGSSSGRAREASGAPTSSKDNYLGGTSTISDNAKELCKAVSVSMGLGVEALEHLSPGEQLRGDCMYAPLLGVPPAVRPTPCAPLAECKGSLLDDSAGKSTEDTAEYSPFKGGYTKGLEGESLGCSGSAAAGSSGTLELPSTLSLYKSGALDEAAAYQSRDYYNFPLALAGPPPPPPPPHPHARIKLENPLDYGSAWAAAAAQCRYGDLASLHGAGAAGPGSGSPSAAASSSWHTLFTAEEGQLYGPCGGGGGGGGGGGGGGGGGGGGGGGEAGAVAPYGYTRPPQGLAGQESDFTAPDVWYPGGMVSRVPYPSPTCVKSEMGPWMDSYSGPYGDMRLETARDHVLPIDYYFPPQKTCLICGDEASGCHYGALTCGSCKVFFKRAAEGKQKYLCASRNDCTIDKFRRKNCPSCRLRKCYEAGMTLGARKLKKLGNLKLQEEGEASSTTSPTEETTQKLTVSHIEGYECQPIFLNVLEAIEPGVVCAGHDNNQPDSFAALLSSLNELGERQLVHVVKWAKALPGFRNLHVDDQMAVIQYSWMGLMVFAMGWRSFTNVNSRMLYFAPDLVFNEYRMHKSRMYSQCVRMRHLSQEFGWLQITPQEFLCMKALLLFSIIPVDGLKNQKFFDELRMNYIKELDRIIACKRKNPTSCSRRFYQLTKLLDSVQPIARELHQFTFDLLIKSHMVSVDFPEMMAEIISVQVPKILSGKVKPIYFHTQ
# Experimental: 1. Human keratinocytes (HaCaT) were prepared at a density of 4.5×10^4 cells per well, treated with DHT at a concentration of 20 nM and with AR Pep1 at a concentration of 20 nM, 1, 10, 100 μM respectively, then cultured in an incubator at 37° C. in the presence of 5% CO2 for 24 hours. As a control, one with no treatment at all and one treated only with DHT were used. The cells in each well were washed with PBS, fixed in 2% formaldehyde for five minutes, and treated with 0.1% TritonX-100 for five minutes to enhance antibody permeability into cells. Then, Anti-AR polyclonal antibody (Santa cruz, USA) and Anti-POL II monoclonal antibody (Santa cruz, USA) were added, PLA probe was applied using In situ PLA kit (Sigma-Aldrich), and steps of hybridization, ligation, amplification, and mounting were performed.
# 2. Luminescence signals (PLA signals) detected from each cell were measured with a confocal laser microscope (Olympus fluoview FW1000; Olympus, Japan), physical interaction between the AR and POL II antibodies was quantified.
substance,measurement,setting,value
Asp-Lys-Phe (DKF; Peptide 1) [AR Pep1],expression of prostate-specific antigen (PSA),[1],expression of the PSA was reduced
same,physical interaction between the AR and POL II (PLA signals),[2],the increase in that interaction was reduced
